Laboratory results reported in PMC5216056 (Nature Communications, 2017).

Columns and labels:
[1] = molecular target: hCB2R (Homo sapiens, UniProt P34972); experiment: cell-based; type: cell-based; set-up: expressed in transfected cells; host or cells: Flp-In-293 (Invitrogen #R750-07), pcDNA5/FRT
[2] = molecular target: T1, A1 (h) (Homo sapiens, UniProt P30542); experiment: CEREP panel; type: binding; conditions: 10 µM
T1 construct: CEREP
T1 sequence (P30542 1-326): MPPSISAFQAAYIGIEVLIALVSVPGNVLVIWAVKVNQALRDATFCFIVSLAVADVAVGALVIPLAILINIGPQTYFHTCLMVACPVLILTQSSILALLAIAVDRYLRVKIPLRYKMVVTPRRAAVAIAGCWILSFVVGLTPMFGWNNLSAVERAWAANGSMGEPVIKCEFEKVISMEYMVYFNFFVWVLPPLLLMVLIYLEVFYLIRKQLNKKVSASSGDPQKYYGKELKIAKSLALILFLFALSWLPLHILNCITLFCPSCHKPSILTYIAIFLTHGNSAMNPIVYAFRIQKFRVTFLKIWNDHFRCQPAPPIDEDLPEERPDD

[3] = molecular target: mouse P-gp (Mus musculus, UniProt P21447); conditions: efflux ratio
mouse P-gp, sequence (P21447 whole entry): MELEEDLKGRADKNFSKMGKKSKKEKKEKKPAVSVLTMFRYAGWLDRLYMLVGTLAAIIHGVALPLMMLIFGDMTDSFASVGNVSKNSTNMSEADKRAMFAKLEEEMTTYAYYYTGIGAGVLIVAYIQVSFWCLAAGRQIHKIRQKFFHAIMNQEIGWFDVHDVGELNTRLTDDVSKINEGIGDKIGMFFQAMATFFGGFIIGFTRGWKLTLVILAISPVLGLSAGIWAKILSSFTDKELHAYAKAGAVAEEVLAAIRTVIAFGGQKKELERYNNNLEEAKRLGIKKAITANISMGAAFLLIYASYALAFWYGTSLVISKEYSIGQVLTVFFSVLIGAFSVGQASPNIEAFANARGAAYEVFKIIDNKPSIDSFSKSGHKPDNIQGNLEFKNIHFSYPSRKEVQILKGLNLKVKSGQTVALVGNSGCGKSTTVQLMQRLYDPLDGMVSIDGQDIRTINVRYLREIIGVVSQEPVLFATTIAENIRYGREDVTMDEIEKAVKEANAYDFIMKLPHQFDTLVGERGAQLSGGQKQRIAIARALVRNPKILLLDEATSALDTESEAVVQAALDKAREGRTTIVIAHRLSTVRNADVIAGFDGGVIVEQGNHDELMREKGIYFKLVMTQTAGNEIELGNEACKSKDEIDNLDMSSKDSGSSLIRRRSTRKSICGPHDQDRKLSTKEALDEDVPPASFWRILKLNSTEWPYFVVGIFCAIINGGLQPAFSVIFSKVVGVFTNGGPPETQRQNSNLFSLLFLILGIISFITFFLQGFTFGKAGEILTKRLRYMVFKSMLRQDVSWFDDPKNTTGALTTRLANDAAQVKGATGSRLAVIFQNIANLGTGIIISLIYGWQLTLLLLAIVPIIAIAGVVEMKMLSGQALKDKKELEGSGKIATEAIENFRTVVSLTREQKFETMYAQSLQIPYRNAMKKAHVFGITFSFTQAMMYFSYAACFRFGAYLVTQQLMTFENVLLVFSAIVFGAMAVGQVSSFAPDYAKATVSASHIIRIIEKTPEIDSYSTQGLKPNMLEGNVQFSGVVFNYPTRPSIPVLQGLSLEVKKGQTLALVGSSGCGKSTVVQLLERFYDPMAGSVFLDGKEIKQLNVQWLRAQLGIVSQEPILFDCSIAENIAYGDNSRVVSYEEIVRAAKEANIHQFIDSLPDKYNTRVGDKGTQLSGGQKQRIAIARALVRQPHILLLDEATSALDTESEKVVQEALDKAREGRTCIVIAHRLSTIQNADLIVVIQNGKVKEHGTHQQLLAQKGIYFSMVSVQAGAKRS

[4] = 1 μM
[5] = test system: PCP; type: binding; conditions: 10 µM
[6] = molecular target: T2, Rat recombinant TRPV4 (Rattus norvegicus, UniProt Q9ERZ8); experiment: cell-based; type: cell-based
T2 construct: expressed in transfected cells; host or cells: HEK293 (TRPV4-HEK-293, gift from HB Bradshaw, Indiana University)
T2 sequence (Q9ERZ8 whole entry): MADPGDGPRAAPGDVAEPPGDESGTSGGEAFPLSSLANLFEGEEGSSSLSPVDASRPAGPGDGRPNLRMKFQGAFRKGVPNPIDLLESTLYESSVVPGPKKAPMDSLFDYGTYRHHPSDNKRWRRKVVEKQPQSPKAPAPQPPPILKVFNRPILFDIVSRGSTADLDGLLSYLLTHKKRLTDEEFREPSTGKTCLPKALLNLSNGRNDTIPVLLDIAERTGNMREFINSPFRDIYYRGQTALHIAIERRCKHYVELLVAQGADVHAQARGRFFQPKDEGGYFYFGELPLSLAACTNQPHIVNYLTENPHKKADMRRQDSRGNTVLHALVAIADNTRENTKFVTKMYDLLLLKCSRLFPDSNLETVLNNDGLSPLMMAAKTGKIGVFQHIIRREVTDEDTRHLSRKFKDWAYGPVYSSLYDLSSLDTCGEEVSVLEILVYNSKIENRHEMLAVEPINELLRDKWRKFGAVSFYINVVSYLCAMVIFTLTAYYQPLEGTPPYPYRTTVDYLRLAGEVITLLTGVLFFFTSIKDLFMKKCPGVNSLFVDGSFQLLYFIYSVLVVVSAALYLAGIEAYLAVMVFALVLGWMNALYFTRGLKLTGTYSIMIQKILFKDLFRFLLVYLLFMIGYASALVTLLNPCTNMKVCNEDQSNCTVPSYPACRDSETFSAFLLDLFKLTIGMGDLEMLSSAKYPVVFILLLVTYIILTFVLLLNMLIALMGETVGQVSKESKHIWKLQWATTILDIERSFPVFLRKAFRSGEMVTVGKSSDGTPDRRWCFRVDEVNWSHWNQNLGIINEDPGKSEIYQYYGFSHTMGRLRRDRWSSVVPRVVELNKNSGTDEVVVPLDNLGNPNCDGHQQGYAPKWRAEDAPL

[7] = molecular target: T3, norepinephrine transporter (h) (Homo sapiens, UniProt P23975); experiment: biochemical; type: binding; conditions: 10 µM
T3 construct: CEREP (contract assay)
T3 sequence (P23975 whole entry): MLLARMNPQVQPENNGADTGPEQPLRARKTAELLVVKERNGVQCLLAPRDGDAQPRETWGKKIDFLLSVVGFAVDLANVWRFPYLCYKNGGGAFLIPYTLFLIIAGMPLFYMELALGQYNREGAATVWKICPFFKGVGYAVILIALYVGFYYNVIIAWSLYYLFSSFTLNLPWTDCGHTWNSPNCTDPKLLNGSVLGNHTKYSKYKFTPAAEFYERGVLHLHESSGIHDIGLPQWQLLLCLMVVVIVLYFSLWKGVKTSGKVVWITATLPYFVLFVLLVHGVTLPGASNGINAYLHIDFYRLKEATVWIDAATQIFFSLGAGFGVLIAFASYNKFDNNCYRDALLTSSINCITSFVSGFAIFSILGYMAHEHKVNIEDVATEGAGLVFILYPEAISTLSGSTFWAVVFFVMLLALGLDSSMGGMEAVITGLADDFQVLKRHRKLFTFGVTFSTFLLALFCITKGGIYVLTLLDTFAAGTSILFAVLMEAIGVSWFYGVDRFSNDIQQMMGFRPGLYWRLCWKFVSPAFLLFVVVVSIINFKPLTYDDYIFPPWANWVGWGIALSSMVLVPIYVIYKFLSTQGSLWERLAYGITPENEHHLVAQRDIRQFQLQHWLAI

[8] = molecular target: T4, A3 (h) (Homo sapiens, UniProt P0DMS8); experiment: CEREP panel; type: binding; conditions: 10 µM
T4 construct: CEREP
T4 sequence (P0DMS8 1-318): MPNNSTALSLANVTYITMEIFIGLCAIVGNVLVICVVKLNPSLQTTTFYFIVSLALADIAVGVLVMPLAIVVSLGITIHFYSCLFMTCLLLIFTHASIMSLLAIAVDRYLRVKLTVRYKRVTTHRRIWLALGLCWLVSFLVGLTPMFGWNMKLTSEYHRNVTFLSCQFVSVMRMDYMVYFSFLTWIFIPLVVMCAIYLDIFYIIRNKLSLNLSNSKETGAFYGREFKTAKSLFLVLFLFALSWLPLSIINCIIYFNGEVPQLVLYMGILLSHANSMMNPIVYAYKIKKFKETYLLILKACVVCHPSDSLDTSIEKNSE

[9] = test system: Ca2+ channel (L, diltiazem site); experiment: CEREP panel; type: binding; conditions: 10 µM
[10] = molecular target: T5, PPARα (h) (Homo sapiens, UniProt Q07869); experiment: CEREP panel; type: binding; conditions: 10 µM
T5 construct: CEREP (contract assay)
T5 sequence (Q07869 1-468): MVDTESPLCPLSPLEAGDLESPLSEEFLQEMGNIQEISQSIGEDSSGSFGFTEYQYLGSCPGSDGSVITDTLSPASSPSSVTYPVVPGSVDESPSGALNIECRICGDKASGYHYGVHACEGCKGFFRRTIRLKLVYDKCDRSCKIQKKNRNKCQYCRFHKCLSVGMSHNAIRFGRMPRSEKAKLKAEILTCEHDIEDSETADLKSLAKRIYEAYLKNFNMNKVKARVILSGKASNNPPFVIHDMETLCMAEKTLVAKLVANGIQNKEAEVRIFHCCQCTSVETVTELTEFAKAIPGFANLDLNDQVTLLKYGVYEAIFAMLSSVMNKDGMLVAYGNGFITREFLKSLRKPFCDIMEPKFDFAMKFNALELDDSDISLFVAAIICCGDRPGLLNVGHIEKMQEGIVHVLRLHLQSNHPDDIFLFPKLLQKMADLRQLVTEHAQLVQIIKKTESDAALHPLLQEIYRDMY

[11] = molecular target: T6, AT1 (h) (Homo sapiens, UniProt P30556); experiment: CEREP panel; type: binding; conditions: 10 µM
T6 construct: CEREP
T6 sequence (P30556 1-359): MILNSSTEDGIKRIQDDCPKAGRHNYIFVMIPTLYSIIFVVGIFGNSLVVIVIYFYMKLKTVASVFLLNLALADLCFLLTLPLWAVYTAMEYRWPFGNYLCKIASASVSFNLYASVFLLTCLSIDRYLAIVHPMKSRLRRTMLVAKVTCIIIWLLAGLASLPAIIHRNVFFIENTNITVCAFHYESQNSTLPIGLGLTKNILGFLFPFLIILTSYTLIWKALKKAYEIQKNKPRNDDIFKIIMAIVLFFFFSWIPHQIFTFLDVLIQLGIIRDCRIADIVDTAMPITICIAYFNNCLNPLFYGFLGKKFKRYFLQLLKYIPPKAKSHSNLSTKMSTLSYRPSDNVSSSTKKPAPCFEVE

[12] = test system: AEA cellular uptake in HMC-1 cells; experiment: cells; type: cell-based, human; conditions: read-out: AEA reuptake IC50 (95% CI) HMC-1 cells; FAAH-deficient cells
[13] = i.v., mice; for C0: 1.0-2.0 mg/kg, extrapolated
[14] = test system: Na+ channel (site 2); type: binding; conditions: 10 µM
[15] = molecular target: T7, hGPR55 (Homo sapiens, UniProt Q9Y2T6); experiment: cell-based; conditions: β-arrestin recruitment
T7 construct: host or cells: CHO-K1 (PathHunter hGPR55_bgal)
T7 sequence (Q9Y2T6 whole entry): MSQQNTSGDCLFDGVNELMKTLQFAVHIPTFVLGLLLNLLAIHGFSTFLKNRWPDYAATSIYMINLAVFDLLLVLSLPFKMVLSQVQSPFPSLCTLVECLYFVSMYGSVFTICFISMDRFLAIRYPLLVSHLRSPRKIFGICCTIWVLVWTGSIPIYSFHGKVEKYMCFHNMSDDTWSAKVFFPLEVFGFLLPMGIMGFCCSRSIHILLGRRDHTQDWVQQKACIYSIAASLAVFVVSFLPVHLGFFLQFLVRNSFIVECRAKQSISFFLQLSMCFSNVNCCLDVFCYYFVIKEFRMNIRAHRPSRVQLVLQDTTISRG

[16] = molecular target: T8, Human recombinant TRPV1 (Homo sapiens, UniProt Q8NER1); experiment: cell-based; type: cell-based
T8 construct: expressed in transfected cells; host or cells: HEK293 (TRPV1-HEK-293, gift from John Davis, GlaxoSmithKline)
T8 sequence (Q8NER1 whole entry): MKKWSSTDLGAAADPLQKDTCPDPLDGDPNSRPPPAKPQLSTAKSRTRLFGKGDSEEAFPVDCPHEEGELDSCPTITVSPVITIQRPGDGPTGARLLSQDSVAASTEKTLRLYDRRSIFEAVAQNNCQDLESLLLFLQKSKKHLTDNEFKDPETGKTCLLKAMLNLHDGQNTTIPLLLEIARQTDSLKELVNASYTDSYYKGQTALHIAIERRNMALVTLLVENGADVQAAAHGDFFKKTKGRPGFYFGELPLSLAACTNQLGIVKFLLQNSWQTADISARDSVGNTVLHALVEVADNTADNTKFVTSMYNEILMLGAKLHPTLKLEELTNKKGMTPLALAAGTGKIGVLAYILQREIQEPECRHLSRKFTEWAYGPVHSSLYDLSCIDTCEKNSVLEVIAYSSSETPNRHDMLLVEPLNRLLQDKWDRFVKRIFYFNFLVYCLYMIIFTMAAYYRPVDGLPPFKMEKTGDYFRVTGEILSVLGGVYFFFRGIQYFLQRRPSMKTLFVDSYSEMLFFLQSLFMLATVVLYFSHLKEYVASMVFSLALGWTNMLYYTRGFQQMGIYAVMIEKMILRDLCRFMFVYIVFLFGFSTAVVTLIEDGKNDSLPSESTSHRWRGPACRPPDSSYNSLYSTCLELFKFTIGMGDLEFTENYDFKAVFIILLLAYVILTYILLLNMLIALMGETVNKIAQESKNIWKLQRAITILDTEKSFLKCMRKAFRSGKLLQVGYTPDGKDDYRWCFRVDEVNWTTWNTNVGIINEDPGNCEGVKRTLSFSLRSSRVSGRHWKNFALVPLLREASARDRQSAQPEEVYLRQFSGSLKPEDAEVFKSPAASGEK

[17] = molecular target: T9, hCB1R (Homo sapiens, UniProt P21554); experiment: cell-based; type: cell-based
T9 construct: host or cells: CHO
T9 sequence (P21554 whole entry): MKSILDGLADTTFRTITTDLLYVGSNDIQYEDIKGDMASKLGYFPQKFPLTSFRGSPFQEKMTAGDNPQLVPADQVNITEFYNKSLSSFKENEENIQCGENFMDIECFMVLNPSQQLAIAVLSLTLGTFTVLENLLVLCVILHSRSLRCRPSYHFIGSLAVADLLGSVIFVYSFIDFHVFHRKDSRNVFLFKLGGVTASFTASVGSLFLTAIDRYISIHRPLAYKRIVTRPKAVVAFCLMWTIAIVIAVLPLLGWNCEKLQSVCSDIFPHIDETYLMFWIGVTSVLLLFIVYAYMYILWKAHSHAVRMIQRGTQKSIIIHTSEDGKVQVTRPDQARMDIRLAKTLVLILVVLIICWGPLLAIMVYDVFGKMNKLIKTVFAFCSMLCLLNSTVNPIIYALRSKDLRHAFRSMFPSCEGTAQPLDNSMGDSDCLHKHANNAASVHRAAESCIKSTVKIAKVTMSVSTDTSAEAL

hCB2R, sequence (P34972 whole entry): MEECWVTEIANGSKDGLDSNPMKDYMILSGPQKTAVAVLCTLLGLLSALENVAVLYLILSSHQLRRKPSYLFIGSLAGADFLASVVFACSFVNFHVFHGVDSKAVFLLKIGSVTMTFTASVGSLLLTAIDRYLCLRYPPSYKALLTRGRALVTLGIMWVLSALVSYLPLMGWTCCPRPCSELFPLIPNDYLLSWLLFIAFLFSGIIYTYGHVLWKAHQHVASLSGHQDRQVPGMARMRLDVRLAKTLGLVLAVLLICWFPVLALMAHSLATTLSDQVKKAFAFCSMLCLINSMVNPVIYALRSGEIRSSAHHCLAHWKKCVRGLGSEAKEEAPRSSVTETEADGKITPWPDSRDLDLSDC

Structure (SMILES)	% inhibition A1 (h) [2]	P-gp (ER) mouse [3]	CL hepatocytes mouse [4]	% inhibition PCP [5]	% inhibition norepinephrine transporter (h) [7]	% inhibition A3 (h) [8]	% inhibition Ca2+ channel (L, diltiazem site) [9]	% inhibition PPARα (h) [10]	% inhibition AT1 (h) [11]	AUCinf [13]	AUCinf/dose [13]	AUClast [13]	CL [13]	T1/2 [13]	C0 [13]	% inhibition Na+ channel (site 2) [14]	GPR55 pEC50 (± SEM) [15]	also measured
Cc1ccc2c(c1)Cc1c(C(=O)NN3CCCCC3)nn(-c3ccc(Cl)cc3Cl)c1-2 [Gp-1a]	25%	1.1	78 µL/min/mio cells	-1%	59%	95%	34%	-9%	20%	825 ng·h/mL	412 kg·ng·h/mL/mg	658 ng·h/mL	40 mL/min/kg	3.5 h	351 ng/mL	40%	< 5	CB2R Selectivity GIRK ([1]; 10^(pEC50 CB2R-pEC50 CB1R)): 5 fold; pEC50 ± SEM GIRK hCB2R ([1]; antagonists in presence of CP55940): 5.99 ± 0.08; TRPV4 Efficacy (% ionomycin 4μM) [6]: < 10%; IC50 ([6]; vs 4αPDD 1μM, read-out: TRPV4 IC50 for desensitization): 2200 ± 100 nM; IC50 [12]: > 5000 nM; TRPV1 Efficacy (% ionomycin 4μM) [16]: < 10%; IC50 ([16]; read-out: TRPV1 IC50 for antagonism or desensitization): 3000 ± 100 nM; Emax ± SEM pERK hCB1R [17]: 2 ± 3
CCCn1c(C)c(C(=O)c2cccc3ccccc23)c2ccccc21 [JWH015]	10%	1.5	205 µL/min/mio cells	-19%	39%	93%	33%	-16%	21%	174 ng·h/mL	158 kg·ng·h/mL/mg	163 ng·h/mL	105 mL/min/kg	2.6 h	438 ng/mL	50%	< 5	–
